The structures appear in SMILES notation. pKi: −log10 of the molar value.

As usually defined, the pKi is −log10 of the Ki, conventionally taken in molar units.

In the assay the target is T1, full-length ATR (Homo sapiens, UniProt Q13535).
T1 construct: Assays were carried out at 25° C. in the presence of 5 nM full-length ATR
T1 sequence (Q13535 whole entry): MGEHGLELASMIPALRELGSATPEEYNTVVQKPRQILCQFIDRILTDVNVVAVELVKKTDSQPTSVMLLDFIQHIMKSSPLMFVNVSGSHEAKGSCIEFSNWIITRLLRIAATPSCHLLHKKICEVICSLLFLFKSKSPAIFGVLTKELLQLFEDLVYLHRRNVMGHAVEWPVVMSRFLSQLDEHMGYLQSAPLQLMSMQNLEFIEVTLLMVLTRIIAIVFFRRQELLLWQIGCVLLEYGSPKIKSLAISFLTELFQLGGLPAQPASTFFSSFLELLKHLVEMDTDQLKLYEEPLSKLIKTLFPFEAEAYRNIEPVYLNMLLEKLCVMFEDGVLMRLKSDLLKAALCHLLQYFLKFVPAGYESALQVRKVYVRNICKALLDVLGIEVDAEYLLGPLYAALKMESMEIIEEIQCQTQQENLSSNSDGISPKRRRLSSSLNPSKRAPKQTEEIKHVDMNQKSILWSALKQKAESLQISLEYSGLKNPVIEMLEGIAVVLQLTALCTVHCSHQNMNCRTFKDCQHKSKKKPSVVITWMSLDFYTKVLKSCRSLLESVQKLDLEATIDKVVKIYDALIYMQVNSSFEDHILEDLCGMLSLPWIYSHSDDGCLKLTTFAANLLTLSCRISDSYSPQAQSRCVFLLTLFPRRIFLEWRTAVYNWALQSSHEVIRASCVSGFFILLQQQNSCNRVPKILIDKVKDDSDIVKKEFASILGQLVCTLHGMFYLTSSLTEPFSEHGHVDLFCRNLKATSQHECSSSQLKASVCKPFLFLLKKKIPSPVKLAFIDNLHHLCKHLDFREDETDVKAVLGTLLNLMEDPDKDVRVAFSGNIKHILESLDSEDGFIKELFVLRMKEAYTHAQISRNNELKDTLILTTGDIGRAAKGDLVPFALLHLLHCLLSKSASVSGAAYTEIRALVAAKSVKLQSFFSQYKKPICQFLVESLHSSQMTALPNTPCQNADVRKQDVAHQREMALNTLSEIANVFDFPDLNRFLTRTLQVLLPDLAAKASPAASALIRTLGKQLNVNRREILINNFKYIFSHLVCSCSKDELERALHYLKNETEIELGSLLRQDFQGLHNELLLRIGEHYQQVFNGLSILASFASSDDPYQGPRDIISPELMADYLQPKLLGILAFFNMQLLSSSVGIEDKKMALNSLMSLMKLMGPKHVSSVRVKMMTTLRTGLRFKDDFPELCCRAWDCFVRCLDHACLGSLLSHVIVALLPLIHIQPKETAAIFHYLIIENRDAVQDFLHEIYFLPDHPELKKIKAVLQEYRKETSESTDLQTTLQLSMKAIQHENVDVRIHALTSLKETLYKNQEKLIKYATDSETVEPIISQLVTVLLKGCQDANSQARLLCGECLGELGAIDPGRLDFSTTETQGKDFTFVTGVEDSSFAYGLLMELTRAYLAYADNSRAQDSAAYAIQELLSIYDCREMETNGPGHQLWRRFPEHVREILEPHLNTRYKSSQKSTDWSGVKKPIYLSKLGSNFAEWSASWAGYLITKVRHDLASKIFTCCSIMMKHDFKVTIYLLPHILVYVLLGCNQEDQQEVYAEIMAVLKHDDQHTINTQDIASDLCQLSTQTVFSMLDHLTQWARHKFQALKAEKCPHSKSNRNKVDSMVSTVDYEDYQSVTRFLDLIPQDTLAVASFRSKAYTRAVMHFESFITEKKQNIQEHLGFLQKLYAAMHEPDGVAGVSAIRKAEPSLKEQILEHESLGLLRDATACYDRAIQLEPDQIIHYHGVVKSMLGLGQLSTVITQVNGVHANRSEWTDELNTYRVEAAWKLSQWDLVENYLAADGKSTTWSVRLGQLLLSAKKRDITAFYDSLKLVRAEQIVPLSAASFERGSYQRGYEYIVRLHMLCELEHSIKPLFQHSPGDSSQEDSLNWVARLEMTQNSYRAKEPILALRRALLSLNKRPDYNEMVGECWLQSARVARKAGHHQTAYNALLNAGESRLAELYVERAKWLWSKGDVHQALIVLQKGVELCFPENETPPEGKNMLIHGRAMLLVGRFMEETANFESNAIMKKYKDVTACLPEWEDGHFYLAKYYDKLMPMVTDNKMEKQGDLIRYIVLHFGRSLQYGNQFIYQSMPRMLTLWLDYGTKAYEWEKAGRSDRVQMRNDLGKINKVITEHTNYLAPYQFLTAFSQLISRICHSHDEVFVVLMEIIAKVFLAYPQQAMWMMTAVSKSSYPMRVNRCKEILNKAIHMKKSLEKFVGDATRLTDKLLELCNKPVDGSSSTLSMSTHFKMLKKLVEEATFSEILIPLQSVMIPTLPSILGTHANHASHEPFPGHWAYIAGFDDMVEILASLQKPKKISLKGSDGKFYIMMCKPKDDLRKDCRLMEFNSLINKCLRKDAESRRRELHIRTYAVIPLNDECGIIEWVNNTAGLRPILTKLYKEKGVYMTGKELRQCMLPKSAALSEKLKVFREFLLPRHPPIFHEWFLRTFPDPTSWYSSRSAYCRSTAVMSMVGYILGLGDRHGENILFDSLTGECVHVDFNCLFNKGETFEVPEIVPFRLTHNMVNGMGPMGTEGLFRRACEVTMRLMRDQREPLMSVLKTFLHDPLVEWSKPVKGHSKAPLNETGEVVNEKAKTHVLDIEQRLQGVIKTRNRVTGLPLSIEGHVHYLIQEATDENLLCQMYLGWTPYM
Put plainly: ATR Inhibition Assay (radioactive-phosphate incorporation). It is filed as biochemical. Conditions: Ki(app); 5 nM full-length ATR, 10 μM ATP, 800 μM target peptide, 25° C. On the procedure:
Compounds were screened for their ability to inhibit ATR kinase using a radioactive-phosphate incorporation assay. Assays were carried out in a mixture of 50 mM Tris/HCl (pH 7.5), 10 mM MgCl2 and 1 mM DTT. Final substrate concentrations were 10 μM [γ-33P]ATP (3mCi 33P ATP/mmol ATP, Perkin Elmer) and 800 μM target peptide (ASELPASQPQPFSAKKK).
Assays were carried out at 25° C. in the presence of 5 nM full-length ATR. An assay stock buffer solution was prepared containing all of the reagents listed above, with the exception of ATP and the test compound of interest. 13.5 μL of the stock solution was placed in a 96 well plate followed by addition of 2 μL of DMSO stock containing serial dilutions of the test compound (typically starting from a final concentration of 15 μM with 3-fold serial dilutions) in duplicate (final DMSO concentration 7%). The plate was pre-incubated for 10 minutes at 25° C. and the reaction initiated by addition of 15 μL [γ-33P]ATP (final concentration 10 μM).
The reaction was stopped after […] by the addition of 30 μL 0.1M phosphoric acid containing 2 mM ATP. A multiscreen phosphocellulose filter 96-well plate (Millipore, Cat no. MAPHN0B50) was pretreated with 100 μL 0.2M phosphoric acid prior to the addition of 45 μL of the stopped assay mixture. The plate was washed with 5×200 μL 0.2M phosphoric acid. After drying, 100 μL Optiphase ‘SuperMix’ liquid scintillation cocktail (Perkin Elmer) was added to the well prior to scintillation counting (1450 Microbeta Liquid Scintillation Counter, Wallac).
After removing mean background values for all of the data points, Ki(app) data were calculated from non-linear regression analysis of the initial rate data using the Prism software package (GraphPad Prism version 3.0cx for Macintosh, GraphPad Software, San Diego Calif., USA).
Turning to `Cc1ccsc1-c1c[nH]c2ncc(-c3ccc(S(=O)(=O)C(C)C)cc3)nc12` [Compound I-28, 2-(4-isopropylsulfonylphenyl)-7-(3-methyl-2-thienyl)-5H-pyrrolo[2,3-b]pyrazine], the pKi was < 7.30.

In the case of `COc1ccc(-c2c[nH]c3ncc(-c4ccc(S(=O)(=O)C(C)C)cc4)nc23)cc1` [Compound I-29, 2-(4-isopropylsulfonylphenyl)-7-(4-methoxyphenyl)-5H-pyrrolo[2,3-b]pyrazine], the pKi is < 7.30. In the case of `COc1cccc(-c2c[nH]c3ncc(-c4ccc(S(=O)(=O)C(C)C)cc4)nc23)c1` [Compound I-30, 2-(4-isopropylsulfonylphenyl)-7-(3-methoxyphenyl)-5H-pyrrolo[2,3-b]pyrazine], the negative logarithm of the Ki (pKi) was 7.30 to 8.00.

As for `COc1ccc(-c2c[nH]c3ncc(-c4ccc(S(=O)(=O)C(C)C)cc4)nc23)cn1` [Compound I-31, 2-(4-isopropylsulfonylphenyl)-7-(6-methoxy-3-pyridyl)-5H-pyrrolo[2,3-b]pyrazine], the pKi was < 7.30. Then `COc1cc(-c2c[nH]c3ncc(-c4ccc(S(=O)(=O)C(C)C)cc4)nc23)ccn1` [Compound I-33, 2-(4-isopropylsulfonylphenyl)-7-(2-methoxy-4-pyridyl)-5H-pyrrolo[2,3-b]pyrazine], with ≥ 8.00. As for `COc1ncc(-c2c[nH]c3ncc(-c4ccc(S(=O)(=O)C(C)C)cc4)nc23)cn1` [Compound I-34, 2-(4-isopropylsulfonylphenyl)-7-(2-methoxypyrimidin-5-yl)-5H-pyrrolo[2,3-b]pyrazine], the negative logarithm of the Ki (pKi) is 7.30 to 8.00. With `CC(C)S(=O)(=O)c1ccc(-c2cnc3[nH]cc(-c4ccc5[nH]ccc5c4)c3n2)cc1` [Compound I-35, 7-(1H-indol-5-yl)-2-(4-isopropylsulfonylphenyl)-5H-pyrrolo[2,3-b]pyrazine], the negative-log Ki (pKi) is 7.30 to 8.00. As for `CC(C)S(=O)(=O)c1ccc(-c2cnc3[nH]cc(-c4cc5ccccc5o4)c3n2)cc1` [Compound I-36, 7-(benzofuran-2-yl)-2-(4-isopropylsulfonylphenyl)-5H-pyrrolo[2,3-b]pyrazine], the pKi is 7.30 to 8.00. On to `CC(C)S(=O)(=O)c1ccc(-c2cnc3[nH]cc(-c4ccc(N(C)C)nc4)c3n2)cc1` [Compound I-37, 5-[2-(4-isopropylsulfonylphenyl)-5H-pyrrolo[2,3-b]pyrazin-7-yl]-N,N-dimethyl-pyridin-2-amine], for which the pKi was 7.30 to 8.00. Then `COc1ncc(-c2c[nH]c3ncc(-c4ccc(S(=O)(=O)C(C)C)cc4)nc23)cc1C` [Compound I-38, 2-(4-isopropylsulfonylphenyl)-7-(6-methoxy-5-methyl-3-pyridyl)-5H-pyrrolo[2,3-b]pyrazine], with 7.30 to 8.00; and `COc1cc(-c2c[nH]c3ncc(-c4ccc(S(=O)(=O)C(C)C)cc4)nc23)c(F)cn1` [Compound I-39, 7-(5-fluoro-2-methoxy-4-pyridyl)-2-(4-isopropylsulfonylphenyl)-5H-pyrrolo[2,3-b]pyrazine], with < 7.30; and `CC(C)S(=O)(=O)c1ccc(-c2cnc3[nH]cc(-c4ccc5ncccc5c4)c3n2)cc1` [Compound I-40, 6-[2-(4-isopropylsulfonylphenyl)-5H-pyrrolo[2,3-b]pyrazin-7-yl]quinoline], with ≥ 8.00.

Consider `CC(C)S(=O)(=O)c1ccc(-c2cnc3[nH]cc(-c4cccc5cnccc45)c3n2)cc1` [Compound I-41, 5-[2-(4-isopropylsulfonylphenyl)-5H-pyrrolo[2,3-b]pyrazin-7-yl]isoquinoline], for which the pKi is < 7.30. With `CC(C)S(=O)(=O)c1ccc(-c2cnc3[nH]cc(-c4cncc5ccccc45)c3n2)cc1` [Compound I-42, 4-[2-(4-isopropylsulfonylphenyl)-5H-pyrrolo[2,3-b]pyrazin-7-yl]isoquinoline], the pKi is 7.30 to 8.00. The value for `CC(C)S(=O)(=O)c1ccc(-c2cnc3[nH]cc(-c4ccnc5ccccc45)c3n2)cc1` [Compound I-43, 4-[2-(4-isopropylsulfonylphenyl)-5H-pyrrolo[2,3-b]pyrazin-7-yl]quinoline] was < 7.30. In the case of `CC(C)S(=O)(=O)c1ccc(-c2cnc3[nH]cc(-c4csc5ccccc45)c3n2)cc1` [Compound I-44, 7-(benzothiophen-3-yl)-2-(4-isopropylsulfonylphenyl)-5H-pyrrolo[2,3-b]pyrazine], the negative-log Ki (pKi) is < 7.30. For `CC(C)S(=O)(=O)c1ccc(-c2cnc3[nH]cc(-c4cc5ccccc5s4)c3n2)cc1` [Compound I-45, 7-(benzothiophen-2-yl)-2-(4-isopropylsulfonylphenyl)-5H-pyrrolo[2,3-b]pyrazine], the negative logarithm of the Ki (pKi) is 7.30 to 8.00. For `COc1ncc(-c2c[nH]c3ncc(-c4ccc(S(=O)(=O)C(C)C)cc4)nc23)c(OC)n1` [Compound I-46, 7-(2,4-dimethoxypyrimidin-5-yl)-2-(4-isopropylsulfonylphenyl)-5H-pyrrolo[2,3-b]pyrazine], the pKi was < 7.30.

On to `CC(C)S(=O)(=O)c1ccc(-c2cnc3[nH]cc(-c4cn[nH]c4)c3n2)cc1` [Compound I-47, 2-(4-(isopropylsulfonyl)phenyl)-7-(1H-pyrazol-4-yl)-5H-pyrrolo[2,3-b]pyrazine], for which the pKi was 7.30 to 8.00. `CC(C)S(=O)(=O)c1ccc(-c2cnc3[nH]cc(-c4cncc(S(C)(=O)=O)c4)c3n2)cc1` [Compound I-48, 2-(4-isopropylsulfonylphenyl)-7-(5-methylsulfonyl-3-pyridyl)-5H-pyrrolo[2,3-b]pyrazine]: the negative-log Ki (pKi) was 7.30 to 8.00. As to `CC(C)S(=O)(=O)c1ccc(-c2cnc3[nH]cc(-c4ccn(C)n4)c3n2)cc1` [Compound I-49, 2-(4-isopropylsulfonylphenyl)-7-(1-methylpyrazol-3-yl)-5H-pyrrolo[2,3-b]pyrazine], the pKi was 7.30 to 8.00. Turning to `CC(C)S(=O)(=O)c1ccc(-c2cnc3[nH]cc(-c4cnn(C)c4)c3n2)cc1` [Compound I-50, 2-(4-isopropylsulfonylphenyl)-7-(1-methylpyrazol-4-yl)-5H-pyrrolo[2,3-b]pyrazine], the pKi is < 7.30.

`Cc1ccc(-c2c[nH]c3ncc(-c4ccc(S(=O)(=O)C(C)C)cc4)nc23)cn1` [Compound I-51, 2-(4-isopropylsulfonylphenyl)-7-(6-methyl-3-pyridyl)-5H-pyrrolo[2,3-b]pyrazine]: the pKi was 7.30 to 8.00. On to `Cc1n[nH]c(C)c1-c1c[nH]c2ncc(-c3ccc(S(=O)(=O)C(C)C)cc3)nc12` [Compound I-52, 7-(3,5-dimethyl-1H-pyrazol-4-yl)-2-(4-isopropylsulfonylphenyl)-5H-pyrrolo[2,3-b]pyrazine], for which the pKi was < 7.30. On to `CC(C)S(=O)(=O)c1ccc(-c2cnc3[nH]cc(-c4ccc(N)nc4)c3n2)cc1` [Compound I-53, 5-[2-(4-isopropylsulfonylphenyl)-5H-pyrrolo[2,3-b]pyrazin-7-yl]pyridin-2-amine], for which the pKi is ≥ 8.00. With `CC(C)S(=O)(=O)c1ccc(-c2cnc3[nH]cc(-c4cc5cc(Br)ccc5s4)c3n2)cc1` [Compound I-54, 7-(5-bromobenzothiophen-2-yl)-2-(4-isopropylsulfonylphenyl)-5H-pyrrolo[2,3-b]pyrazine], the pKi is < 7.30. Then `CC(C)S(=O)(=O)c1ccc(-c2cnc3[nH]cc(-c4cc5cc(F)ccc5n4C(=O)OC(C)(C)C)c3n2)cc1` [Compound I-56, tert-butyl 5-fluoro-2-[2-(4-isopropylsulfonylphenyl)-5H-pyrrolo[2,3-b]pyrazin-7-yl]indole-1-carboxylate], with < 7.30; and `COc1ccc2c(c1)cc(-c1c[nH]c3ncc(-c4ccc(S(=O)(=O)C(C)C)cc4)nc13)n2C(=O)OC(C)(C)C` [Compound I-57, tert-butyl 2-[2-(4-isopropylsulfonylphenyl)-5H-pyrrolo[2,3-b]pyrazin-7-yl]-5-methoxy-indole-1-carboxylate], with < 7.30. In the case of `CC(C)S(=O)(=O)c1ccc(-c2cnc3[nH]cc(-c4cc5c(Cl)cccc5n4C(=O)OC(C)(C)C)c3n2)cc1` [Compound I-58, tert-butyl 4-chloro-2-[2-(4-isopropylsulfonylphenyl)-5H-pyrrolo[2,3-b]pyrazin-7-yl]indole-1-carboxylate], the pKi was < 7.30. The value for `CC(C)S(=O)(=O)c1ccc(-c2cnc3[nH]cc(-c4cn(S(=O)(=O)c5ccccc5)c5ccccc45)c3n2)cc1` [Compound I-59, 7-[1-(benzenesulfonyl)indol-3-yl]-2-(4-isopropylsulfonylphenyl)-5H-pyrrolo[2,3-b]pyrazine] was < 7.30; that for `CC(C)S(=O)(=O)c1ccc(-c2cnc3[nH]cc(-c4cccnc4NC(=O)C(C)(C)C)c3n2)cc1` [Compound I-60, N-[3-[2-(4-isopropylsulfonylphenyl)-5H-pyrrolo[2,3-b]pyrazin-7-yl]-2-pyridyl]2,2-dimethyl-propanamide] was < 7.30; that for `CC(C)S(=O)(=O)c1ccc(-c2cnc3[nH]cc(-c4cc5ccccc5n4C(=O)OC(C)(C)C)c3n2)cc1` [Compound I-61, tert-butyl 2-[2-(4-isopropylsulfonylphenyl)-5H-pyrrolo[2,3-b]pyrazin-7-yl]indole-1-carboxylate] was < 7.30.

Source of the values: patent US8623869B2, “Compounds useful as inhibitors of ATR kinase” (Vertex Pharmaceuticals Incorporated, priority 2010, dated 2014).
